Data published in patent US12655106B2 (Eikonizo Therapeutics, Inc., priority 2021, dated 2026).
pIC50: −log10 of the molar value.

How the values were obtained:
[1] = target: T1, Full length Human HDAC8 (Homo sapiens, UniProt Q9BY41); assay: Caliper endpoint assay for HDAC enzymatic activity (HDAC8); type: biochemical; settings: in vitro enzymatic, 30 min pre-incubation, 1 μM substrate peptide
T1 construct: Full length Human HDAC8; HIS (N); host or cells: baculovirus expression system
T1 sequence (Q9BY41 1-377): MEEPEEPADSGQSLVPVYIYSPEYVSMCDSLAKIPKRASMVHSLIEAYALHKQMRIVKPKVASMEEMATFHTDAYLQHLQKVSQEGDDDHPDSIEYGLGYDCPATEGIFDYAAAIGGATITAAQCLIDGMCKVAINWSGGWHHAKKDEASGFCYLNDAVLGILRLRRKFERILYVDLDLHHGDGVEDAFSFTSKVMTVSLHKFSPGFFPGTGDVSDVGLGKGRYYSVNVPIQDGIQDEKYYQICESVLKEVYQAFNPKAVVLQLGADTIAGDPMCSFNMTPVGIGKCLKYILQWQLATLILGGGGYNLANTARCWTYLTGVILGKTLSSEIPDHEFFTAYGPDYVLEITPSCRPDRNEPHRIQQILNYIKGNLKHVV

[2] = target: T2, Full length Human HDAC6 (Homo sapiens, UniProt Q9UBN7); assay: Caliper endpoint assay for HDAC enzymatic activity (HDAC6); type: biochemical; settings: for pIC50: in vitro enzymatic, Caliper endpoint assay, 30 min pre-incubation, 1 μM substrate peptide; for Selectivity (6 v 8): ratio of HDAC8 IC50/HDAC6 IC50
T2 construct: Full length Human HDAC6; FLAG (C); host or cells: baculovirus expression system
T2 sequence (Q9UBN7 1-1215): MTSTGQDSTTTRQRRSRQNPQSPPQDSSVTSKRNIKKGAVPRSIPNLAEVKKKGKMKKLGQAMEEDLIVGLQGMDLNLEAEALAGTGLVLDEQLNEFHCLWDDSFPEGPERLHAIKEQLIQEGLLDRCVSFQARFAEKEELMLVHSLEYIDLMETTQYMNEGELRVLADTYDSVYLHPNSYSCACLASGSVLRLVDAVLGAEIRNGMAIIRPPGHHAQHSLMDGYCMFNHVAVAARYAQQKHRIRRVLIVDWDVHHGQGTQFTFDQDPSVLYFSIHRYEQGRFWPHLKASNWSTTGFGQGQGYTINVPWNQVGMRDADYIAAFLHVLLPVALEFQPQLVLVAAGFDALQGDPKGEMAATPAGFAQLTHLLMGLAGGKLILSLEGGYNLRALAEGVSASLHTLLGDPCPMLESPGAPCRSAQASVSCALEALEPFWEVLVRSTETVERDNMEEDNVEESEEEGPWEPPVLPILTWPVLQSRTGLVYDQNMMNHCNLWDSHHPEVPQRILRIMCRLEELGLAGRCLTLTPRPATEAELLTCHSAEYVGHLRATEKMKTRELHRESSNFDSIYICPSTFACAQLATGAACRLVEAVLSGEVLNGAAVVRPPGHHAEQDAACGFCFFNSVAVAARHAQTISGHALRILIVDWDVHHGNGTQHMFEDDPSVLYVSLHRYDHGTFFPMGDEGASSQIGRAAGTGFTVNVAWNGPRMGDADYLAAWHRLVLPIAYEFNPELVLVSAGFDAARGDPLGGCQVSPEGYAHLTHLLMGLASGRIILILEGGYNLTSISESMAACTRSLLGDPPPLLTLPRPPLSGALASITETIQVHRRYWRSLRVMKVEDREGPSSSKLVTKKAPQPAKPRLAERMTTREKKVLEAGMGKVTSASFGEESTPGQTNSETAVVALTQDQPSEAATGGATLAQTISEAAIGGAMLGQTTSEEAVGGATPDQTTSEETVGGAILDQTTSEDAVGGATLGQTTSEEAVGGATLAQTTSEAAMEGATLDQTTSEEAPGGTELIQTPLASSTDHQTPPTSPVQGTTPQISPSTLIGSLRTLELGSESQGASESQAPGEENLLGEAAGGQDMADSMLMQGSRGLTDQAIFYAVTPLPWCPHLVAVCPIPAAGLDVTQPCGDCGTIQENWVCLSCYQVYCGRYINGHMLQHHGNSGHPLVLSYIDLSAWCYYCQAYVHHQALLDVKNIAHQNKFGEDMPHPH

| SMILES | pIC50 [1] | pIC50 [2] | Selectivity (6 v 8) [2] |
| --- | --- | --- | --- |
| O=C(NO)c1cc(F)c2c(c1)CCN([C@H]1C[C@@]3(CCCCO3)C1)C2 (single isomer, unassigned) [Compound 340, 8-fluoro-2-(5-oxaspiro[3.5]nonan-2-yl)-3,4-dihydro-1H-isoquinoline-6-carbohydroxamic acid] | 4.00 to 5.00 | 7.00 to 9.00 | V (V: >1000) |
| O=C(NO)c1cc(F)c2c(c1)CCN([C@H]1C[C@]3(CCCNC3)C1)C2 (single isomer, unassigned) [Compound 341, 8-fluoro-N-hydroxy-2-((2r,4s)-6-azaspiro[3.5]nonan-2-yl)-1,2,3,4-tetrahydroisoquinoline-6-carboxamide] | 4.00 to 5.00 | 7.00 to 9.00 | IV (IV: >100-1000) |
| O=C(NO)c1cc(F)c2c(c1)CCN([C@H]1C[C@@]3(CCCNC3)C1)C2 (single isomer, unassigned) [Compound 342, 8-fluoro-N-hydroxy-2-((2s,4r)-6-azaspiro[3.5]nonan-2-yl)-1,2,3,4-tetrahydroisoquinoline-6-carboxamide] | 5.00 to 6.00 | 7.00 to 9.00 | IV (IV: >100-1000) |
| CN1CCC[C@]2(C1)C[C@@H](N1CCc3cc(C(=O)NO)cc(F)c3C1)C2 (single isomer, unassigned) [Compound 343, 8-fluoro-N-hydroxy-2-((2r,4s)-6-methyl-6-azaspiro[3.5]nonan-2-yl)-1,2,3,4-tetrahydroisoquinoline-6-carboxamide] | 4.00 to 5.00 | 7.00 to 9.00 | IV (IV: >100-1000) |
| CN1CCC[C@]2(C1)C[C@H](N1CCc3cc(C(=O)NO)cc(F)c3C1)C2 (single isomer, unassigned) [Compound 344, 8-fluoro-N-hydroxy-2-((2s,4r)-6-methyl-6-azaspiro[3.5]nonan-2-yl)-1,2,3,4-tetrahydroisoquinoline-6-carboxamide] | 4.00 to 5.00 | 7.00 to 9.00 | IV (IV: >100-1000) |
| O=C(NO)c1cc(F)c2c(c1)CCN([C@H]1C[C@]3(CCCN(C4CC4)C3)C1)C2 (single isomer, unassigned) [Compound 345, 2-((2r,4s)-6-cyclopropyl-6-azaspiro[3.5]nonan-2-yl)-8-fluoro-N-hydroxy-1,2,3,4-tetrahydroisoquinoline-6-carboxamide] | 5.00 to 6.00 | 7.00 to 9.00 | IV (IV: >100-1000) |
| O=C(NO)c1cc(F)c2c(c1)CCN([C@H]1C[C@@]3(CCCN(C4CC4)C3)C1)C2 (single isomer, unassigned) [Compound 346, 2-((2s,4r)-6-cyclopropyl-6-azaspiro[3.5]nonan-2-yl)-8-fluoro-N-hydroxy-1,2,3,4-tetrahydroisoquinoline-6-carboxamide] | 5.00 to 6.00 | 7.00 to 9.00 | IV (IV: >100-1000) |
| CC(=O)N1CCC[C@]2(C1)C[C@H](N1CCc3cc(C(=O)NO)cc(F)c3C1)C2 (single isomer, unassigned) [Compound 348, 2-(6-acetyl-6-azaspiro[3.5]nonan-2-yl)-8-fluoro-3,4-dihydro-1H-isoquinoline-6-carbohydroxamic acid] | 4.00 to 5.00 | 7.00 to 9.00 | IV (IV: >100-1000) |
| CC(=O)N1CCC[C@]2(C1)C[C@@H](N1CCc3cc(C(=O)NO)cc(F)c3C1)C2 (single isomer, unassigned) [Compound 349, 2-(6-acetyl-6-azaspiro[3.5]nonan-2-yl)-8-fluoro-3,4-dihydro-1H-isoquinoline-6-carbohydroxamic acid] | 4.00 to 5.00 | 7.00 to 9.00 | IV (IV: >100-1000) |
| CN1CCC[C@@]2(CC[C@H]2N2CCc3cc(C(=O)NO)cc(F)c3C2)C1 (single isomer, unassigned) [Compound 362] | 4.00 to 5.00 | 6.00 to 7.00 | III (III: >10-100) |
| CN1CCC[C@]2(CC[C@H]2N2CCc3cc(C(=O)NO)cc(F)c3C2)C1 (single isomer, unassigned) [Compound 363] | 4.00 to 5.00 | 7.00 to 9.00 | IV (IV: >100-1000) |
| CN1CCC[C@@]2(CC[C@@H]2N2CCc3cc(C(=O)NO)cc(F)c3C2)C1 (single isomer, unassigned) [Compound 364] | 4.00 to 5.00 | 7.00 to 9.00 | IV (IV: >100-1000) |
| CN1CCC[C@]2(CC[C@@H]2N2CCc3cc(C(=O)NO)cc(F)c3C2)C1 (single isomer, unassigned) [Compound 365] | 4.00 to 5.00 | 7.00 to 9.00 | IV (IV: >100-1000) |
| O=C(NO)c1cc(F)c2c(c1)CCN([C@H]1CCC3(CCC3)C1)C2 (single isomer, unassigned) [Compound 383] | 4.00 to 5.00 | 7.00 to 9.00 | V (V: >1000) |
| O=C(NO)c1cc(F)c2c(c1)CCN([C@@H]1CCC3(CCC3)C1)C2 (single isomer, unassigned) [Compound 384] | 4.00 to 5.00 | 7.00 to 9.00 | V (V: >1000) |
| CN1CC[C@]2(CC[C@@H](N3CCc4cc(C(=O)NO)cc(F)c4C3)C2)C1 (single isomer, unassigned) [Compound 402] | 5.00 to 6.00 | 7.00 to 9.00 | IV (IV: >100-1000) |
| CN1CC[C@]2(CC[C@H](N3CCc4cc(C(=O)NO)cc(F)c4C3)C2)C1 (single isomer, unassigned) [Compound 403] | 4.00 to 5.00 | 7.00 to 9.00 | V (V: >1000) |
| CN1CC[C@@]2(CC[C@@H](N3CCc4cc(C(=O)NO)cc(F)c4C3)C2)C1 (single isomer, unassigned) [Compound 404] | 4.00 to 5.00 | 7.00 to 9.00 | IV (IV: >100-1000) |
| CN1CC[C@@]2(CC[C@H](N3CCc4cc(C(=O)NO)cc(F)c4C3)C2)C1 (single isomer, unassigned) [Compound 405] | < 4.00 | 7.00 to 9.00 | V (V: >1000) |
| O=C(NO)c1cc(F)c2c(c1)CCN([C@H]1CCNC3(CCC3)C1)C2 (single isomer, unassigned) [Compound 435] | 5.00 to 6.00 | 7.00 to 9.00 | IV (IV: >100-1000) |
| O=C(NO)c1cc(F)c2c(c1)CCN([C@@H]1CCNC3(CCC3)C1)C2 (single isomer, unassigned) [Compound 436] | 5.00 to 6.00 | 7.00 to 9.00 | IV (IV: >100-1000) |
| CN1CC[C@H](N2CCc3cc(C(=O)NO)cc(F)c3C2)CC12CCC2 (single isomer, unassigned) [Compound 437] | 4.00 to 5.00 | 7.00 to 9.00 | IV (IV: >100-1000) |
| CN1CC[C@@H](N2CCc3cc(C(=O)NO)cc(F)c3C2)CC12CCC2 (single isomer, unassigned) [Compound 438] | 5.00 to 6.00 | 7.00 to 9.00 | IV (IV: >100-1000) |
| O=C(NO)c1cc(F)c2c(c1)CCN([C@H]1CCN(C3CC3)C3(CCC3)C1)C2 (single isomer, unassigned) [Compound 439] | 4.00 to 5.00 | 7.00 to 9.00 | IV (IV: >100-1000) |
| O=C(NO)c1cc(F)c2c(c1)CCN([C@@H]1CCN(C3CC3)C3(CCC3)C1)C2 (single isomer, unassigned) [Compound 440] | 5.00 to 6.00 | 7.00 to 9.00 | IV (IV: >100-1000) |
| CC(=O)N1CC[C@H](N2CCc3cc(C(=O)NO)cc(F)c3C2)CC12CCC2 (single isomer, unassigned) [Compound 441] | 5.00 to 6.00 | 7.00 to 9.00 | IV (IV: >100-1000) |
